Measurements from paper PMC9785542, “Discovery of 1-Benzhydryl-Piperazine-Based HDAC Inhibitors with Anti-Breast Cancer Activity: Synthesis, Molecular Modeling, In Vitro and In Vivo Biological Evaluation” (Pharmaceutics, 2022).
Where “and” joins values, the source holds several entries; their conditions need not be identical. Equal values may be shown once.

Key:
[1] = molecular target: T1, Human recombinant C-ter-His-FLAG-HDAC1 (Homo sapiens, UniProt Q13547); assay: HDAC-Glo I/II bioluminogenic enzyme assay, HDAC1; format: biochemical; details: mean ± SD of three independent experiments; read-out: HDAC Inhibition, IC50 ± SD, HDAC1
T1 construct: His (C); FLAG (C); purchased BPS Bioscience 50051
T1 sequence (Q13547 whole entry): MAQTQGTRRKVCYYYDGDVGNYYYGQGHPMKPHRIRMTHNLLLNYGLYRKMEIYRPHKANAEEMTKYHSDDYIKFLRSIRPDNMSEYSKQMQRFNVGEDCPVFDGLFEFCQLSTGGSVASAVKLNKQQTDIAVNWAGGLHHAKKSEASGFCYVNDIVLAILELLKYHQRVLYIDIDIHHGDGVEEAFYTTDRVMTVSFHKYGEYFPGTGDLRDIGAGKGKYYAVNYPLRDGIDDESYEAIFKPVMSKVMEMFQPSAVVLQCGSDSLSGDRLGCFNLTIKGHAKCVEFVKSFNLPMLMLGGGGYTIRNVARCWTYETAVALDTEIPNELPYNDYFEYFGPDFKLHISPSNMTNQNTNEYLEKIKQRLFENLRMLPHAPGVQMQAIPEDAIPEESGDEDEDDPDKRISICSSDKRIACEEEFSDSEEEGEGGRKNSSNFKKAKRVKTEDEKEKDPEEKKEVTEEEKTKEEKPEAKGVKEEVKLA

[2] = molecular target: T2, Human recombinant C-terminal His-tag-HDAC8 (Homo sapiens, UniProt Q9BY41); assay: HDAC-Glo I/II bioluminogenic enzyme assay, HDAC8; format: biochemical; details: mean ± SD of three independent experiments; read-out: HDAC Inhibition, IC50 ± SD, HDAC8
T2 construct: His (C); purchased BPS Bioscience 50008
T2 sequence (Q9BY41 1-377): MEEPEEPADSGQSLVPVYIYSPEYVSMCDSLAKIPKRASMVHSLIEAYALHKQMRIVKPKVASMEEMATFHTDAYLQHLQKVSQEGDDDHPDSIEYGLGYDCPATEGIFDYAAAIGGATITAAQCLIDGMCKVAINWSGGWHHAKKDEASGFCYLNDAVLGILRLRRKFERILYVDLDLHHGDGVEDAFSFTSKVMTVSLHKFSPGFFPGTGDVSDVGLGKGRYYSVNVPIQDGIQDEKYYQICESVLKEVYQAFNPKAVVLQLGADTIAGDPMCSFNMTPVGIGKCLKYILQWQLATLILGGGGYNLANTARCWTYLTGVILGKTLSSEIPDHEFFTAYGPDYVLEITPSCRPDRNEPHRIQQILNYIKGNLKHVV

[3] = tested on: MCF-7 cells; assay: Cell viability (MTT) assay, MCF-7; format: cell-based; details: Homo sapiens, MCF7, 48 h, read-out: Cytotoxic activity IC50 ± SD, MCF-7
Procedure: Human breast adenocarcinoma cells (MCF-7, ATCC® HTB-22™) and triple-negative breast cancer cells (MDA-MB-231, ATCC® HTB-26™) were obtained from the American Type Culture Collection (Rockville, MD, USA). Cells were maintained as a monolayer culture in DMEM:Ham’s 12 (1:1) medium (Sigma-Aldrich, St. Louis, MO, USA) supplemented with penicillin (192 U/mL), streptomycin (200 µg/mL), and 10% of heat-inactivated fetal calf serum (FCS). Cells were grown at 37 °C in 5% CO2 and humidified air atmosphere, by twice weekly subculture.
Cytotoxic activity of synthesized 1-benzhydryl-piperazine-based HDAC inhibitors was assessed on MDA-MB-231 and MCF-7 cells using an MTT assay. MDA-MB-231 (5 × 10^3 cells/well) and MCF-7 (5 × 10^3 cells/well) were treated with synthesized compounds in six different concentrations (100, 50, 25, 12.5, 6.25, and 3.13 μM), and each concentration was added in five replicates. MTT solution (3-(4,5-dimethylthiazol-2-yl)-2,5-diphenyltetrazolium bromide) (Sigma-Aldrich, St. Louis, USA) was added to each well (20 µL) after 48 h. After 4 h of incubation, 100 μL of 10% SDS was added in each well and incubated at 37 °C. On the next day, the absorbance at 570 nm was recorded. The ratio of absorbance (570 nm) values between treated and control cells multiplied by 100 was used to calculate cell survival (%). The concentration of synthesized HDAC inhibitors that reduced cell viability by 50% was defined as the IC50 value, and was compared to the vehicle control.

[4] = tested on: MDA-MB-231 cells; assay: Cell cycle analysis, propidium iodide flow cytometry; format: cell-based, human; details: IC50 concentration; for percentage of cells in S phases: 48 h
Procedure: MDA-MB-231 cells were treated with tested compounds for specified time courses. After treatment, examined cells were washed in cold PBS and incubated for 30 min in 96% ethanol on ice, centrifuged, and incubated with 80 μL RNase A ([…]) and 50 μL propidium iodide (50 μg/mL) for 30 min at 37 °C. The cell cycle was analyzed by FACS Calibur E440 (Becton Dickinson) flow cytometer and Cell Quest software. Results are presented as a percentage of cell cycle phases.

[5] = molecular target: T3, Human recombinant N-ter-GST-HDAC-6 (Homo sapiens, UniProt Q9UBN7); assay: HDAC-Glo I/II bioluminogenic enzyme assay, HDAC6; format: biochemical; parameters: GST (N); purchased BPS Bioscience 50006; details: for % HDAC6 Inhibition at 5 μM / inhibition at 5 µM: mean ± standard error of triplicate; for IC50: mean ± SD of three independent experiments, read-out: HDAC Inhibition, IC50 ± SD, HDAC6; for Selectivity Ratio HDAC1/6 / Selectivity Ratio HDAC3/6 / Selectivity Ratio HDAC8/6: ratio of IC50 values
T3 sequence (Q9UBN7 1-1215): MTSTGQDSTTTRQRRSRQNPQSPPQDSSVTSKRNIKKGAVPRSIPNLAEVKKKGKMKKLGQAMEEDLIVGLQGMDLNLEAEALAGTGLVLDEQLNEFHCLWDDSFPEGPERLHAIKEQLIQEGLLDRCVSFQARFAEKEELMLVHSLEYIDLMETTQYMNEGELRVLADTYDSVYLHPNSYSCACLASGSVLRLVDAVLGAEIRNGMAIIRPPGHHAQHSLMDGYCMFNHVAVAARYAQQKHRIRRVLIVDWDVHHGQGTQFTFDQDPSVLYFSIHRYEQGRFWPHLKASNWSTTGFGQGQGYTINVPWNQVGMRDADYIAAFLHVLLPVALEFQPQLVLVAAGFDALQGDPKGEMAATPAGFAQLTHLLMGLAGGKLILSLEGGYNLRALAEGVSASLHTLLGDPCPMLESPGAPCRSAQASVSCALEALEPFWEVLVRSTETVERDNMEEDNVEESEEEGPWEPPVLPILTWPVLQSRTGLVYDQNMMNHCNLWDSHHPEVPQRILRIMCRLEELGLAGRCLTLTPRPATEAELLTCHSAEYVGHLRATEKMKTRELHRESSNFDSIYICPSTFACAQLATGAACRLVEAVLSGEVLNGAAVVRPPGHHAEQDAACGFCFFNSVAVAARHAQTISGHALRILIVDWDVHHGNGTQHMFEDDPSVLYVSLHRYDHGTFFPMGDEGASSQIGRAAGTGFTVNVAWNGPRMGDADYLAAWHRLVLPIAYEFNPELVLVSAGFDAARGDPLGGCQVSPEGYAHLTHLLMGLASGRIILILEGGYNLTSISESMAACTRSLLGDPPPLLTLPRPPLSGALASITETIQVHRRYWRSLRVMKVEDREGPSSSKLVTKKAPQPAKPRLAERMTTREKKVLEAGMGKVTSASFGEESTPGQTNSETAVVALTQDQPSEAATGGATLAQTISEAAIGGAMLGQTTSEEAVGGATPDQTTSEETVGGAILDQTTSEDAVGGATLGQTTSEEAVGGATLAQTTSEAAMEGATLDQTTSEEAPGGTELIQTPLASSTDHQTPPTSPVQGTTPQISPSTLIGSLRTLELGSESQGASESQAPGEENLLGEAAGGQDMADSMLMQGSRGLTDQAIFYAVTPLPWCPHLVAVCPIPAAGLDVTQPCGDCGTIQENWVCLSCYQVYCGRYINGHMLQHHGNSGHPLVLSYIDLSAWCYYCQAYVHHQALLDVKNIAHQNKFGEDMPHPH

Structure (SMILES)	IC50 [1] [nM]	IC50 [2] [nM]	IC50 [3] [nM]	percentage of cells in the G2/M phase ([4]; 24 h)	percentage of cells in S phases [4]	% HDAC6 Inhibition at 5 μM [5] [%]	inhibition at 5 µM [5] [%]	IC50 [5] [nM]	Selectivity Ratio HDAC1/6 [5]	Selectivity Ratio HDAC3/6 [5]	Selectivity Ratio HDAC8/6 [5]	percentage of cells in the S phase ([4]; 24 h)
O=C(CCCCCCN1CCN(C(c2ccccc2)c2ccccc2)CC1)NO [Compound 7b, 7-(4-(diphenylmethyl)-piperazin-1-yl)-N-hydroxyheptanamide]	619 ± 23	345 ± 17	> 100000	slight increase	increased	97.1 ± 0.8	> 90	96 ± 8	6.4	2.8	3.6	
O=C(CCCCCCCN1CCN(C(c2ccccc2)c2ccccc2)CC1)NO [Compound 8b, 8-(4-(diphenylmethyl)-piperazin-1-yl)-N-hydroxyoctanamide]	408 ± 22	245 ± 2	39100 ± 2700	slight increase	increased	97.7 ± 0.2	> 90	124 ± 13	3.3	1.7	2	
O=C(NO)c1ccc(CN2CCN(C(c3ccccc3)c3ccccc3)CC2)cc1 [Compound 9b, 4-(4-(diphenylmethyl)-piperazin-1-ylmethyl)-N-hydroxy-benzamide]	1470 ± 172	708 ± 45	99500 ± 700		increased	96.9 ± 0.3	> 90	31 ± 4	47.5	112 and 111.8	23	increased
